Tested on: Plasmodium berghei
Test: Luciferase/luciferin-expressing antifolate-resistant parasites were used to infect a culture of HepG2 cells that were pre-incubated with compounds. Infected hepatocytes emit light due to the luciferase reaction. Assay results are presented as the percent inhibition of light emission compared to control. […]
Assay type: functional
Details: sporozoite; for IC90: read-out: LUCIFERASE INFECTION ASSAY - IC90
[1] = PBLUC_HILL_SLOPE 22.1, PBLUC_R_SQUARED 0.617, read-out: LUCIFERASE INFECTION ASSAY - IC50

| SMILES | IC90 [µM] | other results |
| --- | --- | --- |
| NC(c1csc(NC(=O)Nc2cccc(C(F)(F)F)c2)n1)C1CCCCC1 (stereo not given) | 6.65 | IC50 (PBLUC_HILL_SLOPE 23.3, PBLUC_R_SQUARED 0.126, read-out: LUCIFERASE INFECTION ASSAY - IC50): 6.05 µM |
| Cc1ccc(-c2nn(-c3ccccc3)cc2/C=C/C(=O)NC2CCN(Cc3ccccc3)CC2)cc1 | 9.38 | IC50 (PBLUC_HILL_SLOPE 22.5, 12.9, PBLUC_R_SQUARED 0.0358, 0.549, read-out: LUCIFERASE INFECTION ASSAY - IC50): 8.22 µM |
| CC(C)(C)c1cc(C(=O)Nc2nc(C(N)c3ccccc3Cl)cs2)n(Cc2ccccc2)n1 (stereo not given) | 6.37 | IC50 (PBLUC_HILL_SLOPE 22.9, PBLUC_R_SQUARED 0.71, read-out: LUCIFERASE INFECTION ASSAY - IC50): 5.79 µM |
| CN1\C(=C/C=N/N=C/C2=C(N3CCOCC3)C(=C\c3ccc([N+](=O)[O-])cc3)/CC2)C(C)(C)c2ccccc21 | 9.46 | IC50 (PBLUC_HILL_SLOPE 22.4, PBLUC_R_SQUARED 0.296, read-out: LUCIFERASE INFECTION ASSAY - IC50): 8.58 µM |
| O=C(OCc1cc(=O)oc2cc(O)ccc12)c1ccc(Cl)c(S(=O)(=O)N2CCCCCC2)c1 | > 10 | IC50 (PBLUC_HILL_SLOPE 24.9, PBLUC_R_SQUARED 0.0553, read-out: LUCIFERASE INFECTION ASSAY - IC50): 9.36 µM |
| Cc1nc(C(C)(C)C)nc2sc(C(=O)N(C)CC(=O)Nc3cccc(F)c3)c(C)c12 | 3.71 | IC50 (PBLUC_HILL_SLOPE 21.5, PBLUC_R_SQUARED 0.514, read-out: LUCIFERASE INFECTION ASSAY - IC50): 3.35 µM |
| c1nc(Nc2ccc(C34CC5CC(CC(C5)C3)C4)cc2)c2ccsc2n1 | 0.884 | IC50 (PBLUC_HILL_SLOPE 24.2, PBLUC_R_SQUARED 0.39, read-out: LUCIFERASE INFECTION ASSAY - IC50): 0.808 µM |
| COc1cc(OC)c(NC(=O)c2cc3ccccc3cc2OCC(=O)NCc2ccco2)cc1Cl | > 10 | IC50 [1]: 9.17 µM |
| Cc1ccc(O)c(/C=N/NC(=S)NC(C)(C)C)c1 | > 12.4 | IC50 (PBLUC_HILL_SLOPE 24.9, PBLUC_R_SQUARED 0.247, read-out: LUCIFERASE INFECTION ASSAY - IC50): 11.8 µM |
| CC(Oc1ccc2[nH]c3ccccc3c(=O)c2c1)C(=O)NC(=O)NC12CC3CC(CC(C3)C1)C2 (stereo not given) | 3.1 | IC50 (PBLUC_HILL_SLOPE 24.7, PBLUC_R_SQUARED 0.64, read-out: LUCIFERASE INFECTION ASSAY - IC50): 2.84 µM |
| CN1CCCN(c2ncnc3cc(-c4ccc(Cl)cc4)sc23)CC1 | > 10 | IC50 (PBLUC_HILL_SLOPE 23.2, PBLUC_R_SQUARED 0.558, read-out: LUCIFERASE INFECTION ASSAY - IC50): 9.79 µM |
| O=C(Nc1ccn(-c2ccccc2)n1)c1cc(-c2ccccc2)nc2ccccc12 | > 10 | IC50 (PBLUC_HILL_SLOPE 22.3, 9.62, PBLUC_R_SQUARED 0.228, 0.621, read-out: LUCIFERASE INFECTION ASSAY - IC50): 9.46 µM |
| Cc1c(C(=O)Nc2ccccc2O)cnn1-c1cccc(C(F)(F)F)c1 | 3.64 | IC50 (PBLUC_HILL_SLOPE 22.3, PBLUC_R_SQUARED 0.482, read-out: LUCIFERASE INFECTION ASSAY - IC50): 3.29 µM |
| Cc1nn(-c2ccccn2)c2c1C(c1ccccc1Cl)C1=C(N2)c2ccccc2C1=O (stereo not given) | > 10 | IC50 [1]: 9.17 µM |
| Cc1ccc2sc(N(Cc3ccccc3)C(=O)CN3CCC(C(N)=O)CC3)nc2c1C | 4.19 | IC50 (PBLUC_HILL_SLOPE 23.7, PBLUC_R_SQUARED 0.191, read-out: LUCIFERASE INFECTION ASSAY - IC50): 3.82 µM |
| CC(Nc1ccnc2cc(Cl)ccc12)c1ccccc1Cl (stereo not given) | 3.6 | IC50 (PBLUC_HILL_SLOPE 22.7, PBLUC_R_SQUARED 0.0753, read-out: LUCIFERASE INFECTION ASSAY - IC50): 3.27 µM |
| Cc1cc(C(=O)ONC(=N)c2c(-c3c(Cl)cccc3Cl)noc2C)no1 | > 8.35 | IC50 (PBLUC_HILL_SLOPE 25.8, PBLUC_R_SQUARED 0.198, read-out: LUCIFERASE INFECTION ASSAY - IC50): 8.05 µM |
| COc1ccc(-c2cnc3cnc(-c4ccc(C(=O)NC5CC5)cc4)cn23)cn1 | > 8.56 | IC50 (PBLUC_HILL_SLOPE 21.9, PBLUC_R_SQUARED 0.538, read-out: LUCIFERASE INFECTION ASSAY - IC50): 7.8 µM |
| COc1ccc(C(=O)/C=C/c2cccc3cccnc23)cc1Br | > 10 | IC50 (PBLUC_HILL_SLOPE 24.4, PBLUC_R_SQUARED 0.237, read-out: LUCIFERASE INFECTION ASSAY - IC50): > 10 µM |
| Cc1ccc(-c2nc3c(s2)CN(C(=O)c2ccco2)CC3)cc1 | 3.19 | IC50 (PBLUC_HILL_SLOPE 23.5, PBLUC_R_SQUARED 0.61, read-out: LUCIFERASE INFECTION ASSAY - IC50): 2.9 µM |

| SMILES | IC90 [µM] | other results |
| --- | --- | --- |
| COc1ccccc1Oc1ccc(NC(C)C(=O)N2CCCC2)cc1 (stereo not given) | > 10 | IC50 (PBLUC_HILL_SLOPE 21.7, PBLUC_R_SQUARED 0.137, read-out: LUCIFERASE INFECTION ASSAY - IC50): 9.85 µM |
| O=C(Cc1cn(-c2ccccc2)nc1-c1ccc(Cl)cc1)NCc1ccc(Cn2ccnc2)cc1 | > 10 | IC50 (PBLUC_HILL_SLOPE 23, PBLUC_R_SQUARED 0.395, read-out: LUCIFERASE INFECTION ASSAY - IC50): 9.71 µM |
| CC(C)(C)c1ccc(-c2cnc3cnc(-c4ccc(C(=O)NCCO)cc4)cn23)cc1 | > 7.96 | IC50 (PBLUC_HILL_SLOPE 23.2, PBLUC_R_SQUARED 0.508, read-out: LUCIFERASE INFECTION ASSAY - IC50): 7.27 µM |
| CC(Nc1ccc(Oc2cccc(F)c2)cc1)C(=O)N1CCNC1=O (stereo not given) | 1.08 | IC50 (PBLUC_HILL_SLOPE 25, PBLUC_R_SQUARED 0.491, read-out: LUCIFERASE INFECTION ASSAY - IC50): 0.991 µM |
| O=C(c1cccc2ccccc12)N(c1ccc(F)cc1)c1nc2ccccc2s1 | > 10 | IC50 (PBLUC_HILL_SLOPE 22.2, PBLUC_R_SQUARED 0.211, read-out: LUCIFERASE INFECTION ASSAY - IC50): 9.18 µM |
| CCOc1ccc2nc(N/N=C3/C(=O)N(c4ccccc4)N=C3C)sc2c1 | 9.42 | IC50 (PBLUC_HILL_SLOPE 22.7, PBLUC_R_SQUARED 0.625, read-out: LUCIFERASE INFECTION ASSAY - IC50): 8.55 µM |
| Cc1c(C(=O)OC(C(=O)c2ccccc2)c2ccccc2)sc2ncn(C)c(=O)c12 (stereo not given) | 8.68 | IC50 (PBLUC_HILL_SLOPE 24.2, PBLUC_R_SQUARED 0.462, read-out: LUCIFERASE INFECTION ASSAY - IC50): 7.93 µM |
| Cn1c(SCC#N)nnc1-c1ccc(C(C)(C)C)cc1 | 1.34 | IC50 (PBLUC_HILL_SLOPE 23.6, PBLUC_R_SQUARED 0.364, read-out: LUCIFERASE INFECTION ASSAY - IC50): 1.22 µM |
| C=S(NC(=O)c1ccc(Cl)cc1)c1sc(C(=O)OCC)c2c1C(=O)CCC2 (stereo not given) | > 7.78 | IC50 (PBLUC_HILL_SLOPE 23.8, PBLUC_R_SQUARED 0.121, read-out: LUCIFERASE INFECTION ASSAY - IC50): > 7.78 µM |
| CN(C)c1cccc(-c2cnc(N)c(-c3ccc(O)cc3)c2)c1 | > 10.8 | IC50 (PBLUC_HILL_SLOPE 24.2, PBLUC_R_SQUARED 0.305, read-out: LUCIFERASE INFECTION ASSAY - IC50): 10.5 µM |
| CCC1CCc2sc(C(=O)Nc3ccccc3O)cc2C1 (stereo not given) | > 10 | IC50 (PBLUC_HILL_SLOPE 24.2, PBLUC_R_SQUARED 0.273, read-out: LUCIFERASE INFECTION ASSAY - IC50): 9.71 µM |
| Cc1ccc(Cn2cc(/C=C/C(=O)Nc3ccn(C)n3)c(-c3ccccc3)n2)cc1 | 5.35 | IC50 (PBLUC_HILL_SLOPE 23.0, 1.63, PBLUC_R_SQUARED 0.221, 0.716, read-out: LUCIFERASE INFECTION ASSAY - IC50): 5.32 µM |
| COc1ccc([N+](=O)[O-])cc1C(=O)NCCOc1ccc2ccccc2c1 | > 10 | IC50 (PBLUC_HILL_SLOPE 24.5, PBLUC_R_SQUARED 0.535, read-out: LUCIFERASE INFECTION ASSAY - IC50): 9.5 µM |
| CNc1snc(C)c1C(=O)OCc1coc(-c2cccs2)n1 | 0.0184 | IC50 (PBLUC_HILL_SLOPE 23.3, PBLUC_R_SQUARED 0.377, read-out: LUCIFERASE INFECTION ASSAY - IC50): 0.0168 µM |
| CCc1c(C(=O)/C=C/c2cc(OC)c(O)c(OC)c2)oc2ccc(C)cc12 | 7.96 | IC50 (PBLUC_HILL_SLOPE 25.7, 54.1, PBLUC_R_SQUARED 0.301, 0.609, read-out: LUCIFERASE INFECTION ASSAY - IC50): 7.44 µM |
| CN(C)C(=O)c1ccc(NCC(=O)N2N=C(c3ccc(Cl)cc3)CC2c2ccco2)cc1 (stereo not given) | 8.21 | IC50 (PBLUC_HILL_SLOPE 25.7, PBLUC_R_SQUARED 0.49, read-out: LUCIFERASE INFECTION ASSAY - IC50): 7.54 µM |
| O=C(CSCc1cccs1)Nc1nc(-c2ccccn2)cs1 | 9.38 | IC50 (PBLUC_HILL_SLOPE 22, PBLUC_R_SQUARED 0.337, read-out: LUCIFERASE INFECTION ASSAY - IC50): 8.49 µM |
| COc1ccc(OC)c(NC(=O)Nc2ccc(OC(F)(F)F)cc2)c1 | > 9.26 | IC50 (PBLUC_HILL_SLOPE 22.3, PBLUC_R_SQUARED 0.0229, read-out: LUCIFERASE INFECTION ASSAY - IC50): 9.07 µM |
| Cn1c(Nc2ccccc2)nc2cnc(-c3ccc(Cl)cc3)cc21 | > 10 | IC50 (PBLUC_HILL_SLOPE 23.8, PBLUC_R_SQUARED 0.319, read-out: LUCIFERASE INFECTION ASSAY - IC50): 9.73 µM |
| O=C(NC1CCN(Cc2ccccc2)CC1)c1oc2ccccc2c1COc1ccccc1 | > 10 | IC50 (PBLUC_HILL_SLOPE 25.1, PBLUC_R_SQUARED 0.225, read-out: LUCIFERASE INFECTION ASSAY - IC50): > 10 µM |
